Test results as given in patent US6706736B2, “Antidepressant azaheterocyclylmethyl derivatives of oxaheterocycle-fused-[1,4]-benzodioxans” (Wyeth, priority 2001, dated 2004).
Counter-ions that a name gives are not always drawn. Like-named read-outs stand apart in the source and are kept apart here.

Tests used:
human 5-HT1A receptors = target: T1, human 5-HT1A receptors (Homo sapiens, UniProt P08908); assay: [3H] 8-OHDPAT displacement from 5-HT1A receptor in transfected CHO cells; format: binding
T1 construct: expressed in transfected cells; host or cells: CHO cells (stably transfected)
T1 sequence (P08908 1-422): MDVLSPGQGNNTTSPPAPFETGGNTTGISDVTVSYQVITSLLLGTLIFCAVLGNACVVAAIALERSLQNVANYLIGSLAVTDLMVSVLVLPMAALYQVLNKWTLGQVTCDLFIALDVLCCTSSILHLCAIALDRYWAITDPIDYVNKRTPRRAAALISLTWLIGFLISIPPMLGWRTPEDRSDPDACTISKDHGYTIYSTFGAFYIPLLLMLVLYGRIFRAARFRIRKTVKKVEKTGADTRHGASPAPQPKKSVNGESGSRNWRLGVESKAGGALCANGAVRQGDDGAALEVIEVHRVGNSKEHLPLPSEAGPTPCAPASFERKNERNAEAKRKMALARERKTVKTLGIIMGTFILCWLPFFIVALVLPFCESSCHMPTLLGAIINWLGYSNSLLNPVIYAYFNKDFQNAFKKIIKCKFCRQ
Excerpt: High affinity for the serotonin 5-HT1A receptor was established by testing the claimed compound's ability to displace [^3H] 8-OHDPAT (dipropylaminotetralin) from the 5-HT1A serotonin receptor following a modification of the procedure of Hall et al., J. Neurochem. 44, 1685 (1985) which utilizes CHO cells stably transfected with human 5-HT1A receptors.

[1] = target: T2, cloned human 5-HT1A receptors (Homo sapiens, UniProt P08908); assay: 35S-GTPγS binding assay, antagonist activity at 5-HT1A receptors; format: biochemical; details: reversal of standard agonist 8-OHDPAT; for IC50: read-out: 5-HT1A Function IC50; for 5-HT1A Function Imax (maximum inhibitory effect): value in parentheses
T2 construct: expressed in transfected cells
T2 sequence (P08908 1-422): T1 sequence (P08908 1-422)
Description: Antagonist activity at 5-HT1A receptors was established by using a ^35S-GTPγS binding assay similar to that used by Lazareno and Birdsall (Br. J. Pharmacol. 109: 1120, 1993), in which the test compound's ability to affect the binding of ^35S-GTPγS to membranes containing cloned human 5-HT1A receptors was determined. Agonists produce an increase in binding whereas antagonists produce no increase but rather reverse the effects of the standard agonist 8-OHDPAT. The test compound's maximum inhibitory effect is represented as the Imax, while its potency is defined by the IC50.

serotonin transporter = target: T3, serotonin transporter (Rattus norvegicus, UniProt P31652); assay: 3H-paroxetine displacement from rat frontal cortical membranes (serotonin transporter affinity); format: binding
T3 construct: displace ^3H-paroxetine from male rat frontal cortical membranes; from tissue; host or cells: male rat frontal cortex membranes

[2] = 3H-paroxetine, male rat frontal cortical membranes, read-out: 5-HT Transporter Affinity KI

T3 sequence (P31652 whole entry): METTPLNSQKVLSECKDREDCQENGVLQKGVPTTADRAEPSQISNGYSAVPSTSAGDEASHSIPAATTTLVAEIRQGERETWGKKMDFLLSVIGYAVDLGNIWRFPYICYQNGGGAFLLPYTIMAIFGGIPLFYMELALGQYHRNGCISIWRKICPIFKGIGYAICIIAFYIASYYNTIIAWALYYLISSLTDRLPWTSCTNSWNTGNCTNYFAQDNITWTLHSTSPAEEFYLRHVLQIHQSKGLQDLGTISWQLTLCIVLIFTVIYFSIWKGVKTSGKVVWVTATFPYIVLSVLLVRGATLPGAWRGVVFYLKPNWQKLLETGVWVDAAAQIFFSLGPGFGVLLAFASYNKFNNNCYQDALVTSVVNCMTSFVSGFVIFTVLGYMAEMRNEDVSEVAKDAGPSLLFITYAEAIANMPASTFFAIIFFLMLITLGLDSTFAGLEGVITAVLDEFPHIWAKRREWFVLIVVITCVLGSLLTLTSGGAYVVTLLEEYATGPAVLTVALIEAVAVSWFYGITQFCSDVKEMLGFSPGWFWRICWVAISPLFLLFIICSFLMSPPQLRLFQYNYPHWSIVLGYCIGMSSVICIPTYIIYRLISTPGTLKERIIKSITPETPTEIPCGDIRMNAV

For Fc1ccc2[nH]cc(C3=CCN(CC4COc5ccc6c(c5O4)CCCO6)CC3)c2c1 (stereo not shown) (as salt: salt) [Example 5, 5-Fluoro-3-{1-[2,3,9,10-tetrahydro-8H-[1,4]dioxino[2,3-f]chromen-2-ylmethyl]-1,2,3,6-tetrahydro-4-pyridinyl}-1H-indole], which melting point is on record?
Its melting point is 205 to 206 °C.

For Cc1cc2c3c(ccc2o1)OC[C@H](CN1CC=C(c2c[nH]c4ccccc24)CC1)O3 [Example 1], which Ki (human 5-HT1A receptors) is on record?
The Ki was 0.0141 µM.

And the IC50 [1]?
Its IC50 is 0.241 µM.

What about the “5-HT1A Function Imax (maximum inhibitory effect)” value [1] of the same molecule?
Its value is 62.0.

What about the Ki (serotonin transporter; [2]) of the same molecule?
Its Ki is 0.185 µM.

For Cc1cc2ccc3c(c2o1)OC(CN1CC=C(c2c[nH]c4ccccc24)CC1)CO3 (stereo not shown) [Example 1], which melting point is on record?
Its melting point is 198 to 200 °C.

Which Ki (human 5-HT1A receptors) does the source give for C1=C(c2c[nH]c3ccccc23)CCN(CC2COc3ccc4c(c3O2)CCO4)C1 (stereo not shown) [Example 2, 3-{1-[2,3,8,9-Tetrahydrofuro[3,2-f][1,4]benzodioxin-2-ylmethyl]-1,2,3,6-tetrahydro-4-pyridinyl}-1H-indole] here?
Its Ki is 0.046 µM.

What about the IC50 [1] of the same molecule?
Its IC50 is 0.264 µM.

And the “5-HT1A Function Imax (maximum inhibitory effect)” value [1]?
The value was 66.0.

What about the melting point of the same molecule?
Its melting point is 207 to 209 °C.

What about the Ki (serotonin transporter) of the same molecule?
Its Ki is 0.034 µM.

Which results are given for C1=C(c2c[nH]c3ccccc23)CCN(CC2COc3ccc4occc4c3O2)C1 (stereo not shown) [Example 3, 3-{1-[2,3-Dihydrofuro[3,2-f][1,4]benzodioxin-2-ylmethyl]-1,2,3,6-tetrahydropyridin-4-yl}-1H-indole]?
Ki (human 5-HT1A receptors): 0.0196 µM; IC50 [1]: 0.019 µM; 5-HT1A Function Imax (maximum inhibitory effect) [1]: 61.0; melting point: 208 to 209 °C; Ki (serotonin transporter; [2]): 0.115 µM

Which results are given for C1=C(c2c[nH]c3ccccc23)CCN(CC2COc3ccc4c(c3O2)CCCO4)C1 (stereo not shown) [Example 4, 3-{1-[2,3,9,10-Tetrahydro-8H-[1,4]dioxino[2,3-f]chromen-2-ylmethyl]-1,2,3,6-tetrahydro-4-pyridinyl}-1H-indole]?
Ki (human 5-HT1A receptors): 0.0304 µM; IC50 [1]: 0.868 µM; 5-HT1A Function Imax (maximum inhibitory effect) [1]: 100; melting point: 186 to 187 °C; Ki (serotonin transporter): 0.0085 µM

Which results are given for Fc1ccc2[nH]cc(C3=CCN(CC4COc5ccc6c(c5O4)CCCO6)CC3)c2c1 (stereo not shown) [Example 5, 5-Fluoro-3-{1-[2,3,9,10-tetrahydro-8H-[1,4]dioxino[2,3-f]chromen-2-ylmethyl]-1,2,3,6-tetrahydro-4-pyridinyl}-1H-indole]?
Ki (human 5-HT1A receptors): 0.0294 µM; IC50 [1]: 0.347 µM; 5-HT1A Function Imax (maximum inhibitory effect) [1]: 100; Ki (serotonin transporter): 0.01 µM
